Source: patent US7947468B2, “Methods” (Medical Research Council, priority 2007, dated 2011)
One block for each compound: values may come before it.

What was measured:
LRRK2 = test: Concentration dependent phosphorylation of Nictide / LongLRRKtide by LRRK2; assay type: biochemical
Description: A longer LRRKtide, with the +7 to +12 residues of the Thr 558 site was compared to the LRRKtide by phosphorylation with LRRK2. […] The LRRK2 affinity for the longLRRKtide is ten fold more than that that of LRRKtide.
A derived consensus sequences is shown below the positions. FIG. 24B depicts an alignment of the peptide substrate sequences previously used for LRRK2, LRRKtide and LongLRRKtide, along with a new peptide in which the preferred LRRK2 residues are substituted, henceforth referred to as Nictide. […] Calculated Km values are 6 μM for Nictide.

Human Platelets = settings: non-specific serine/threonine kinase inhibitor; cited from earlier work

Km (LRRK2; 5 min reaction times, read-out: Calculated Km): 6 µM
Compound: RLGWWRFYTLRRARQGNTKQR [Nictide]

Compound: RLGRDKYKTLRQIRQGNTKQR (listed as Homo sapiens) [longLRRKtide]
LRRK2 affinity relative to LRRKtide (LRRK2; compared to LRRKtide): ten fold

Compound: CN[C@@H]1C[C@H]2O[C@@](C)([C@@H]1OC)n1c3ccccc3c3c4c(c5c6ccccc6n2c5c31)C(=O)NC4 [staurosporine]
effect on platelet behaviour (Human Platelets): form extremely long filopodia and not to spread on glass
